Experimental data published in US10669287B2, “Curcumin-boron complex and pharmaceutical containing same” (JAPAN SCIENCE AND TECHNOLOGY AGENCY, priority 2016, dated 2020).
Where two headings read alike, the source gives them in different places.

How the values were obtained:
Arctic Aβ1-38 = molecular target: T1, Arctic Aβ1-38 (Homo sapiens, UniProt P05067, E693G); assay type: biochemical; conditions: mouse brain lysate, light 780 nm
T1 construct: The peak intensity decreased by 36%/53%/74% for Arctic Aβ1-38; from tissue; host or cells: cerebral cortex and hippocampus of App knock-in mouse
Experimental: The brain excised from an eight-month-old App knock-in (App^NL-C-F/NL-C-F) mouse (Alzheimer's model mouse) was separated into the cerebral cortex, the hippocampus, and the residual brain tissues. The cerebral cortex and the hippocampus were homogenized together in a phosphate buffer saline, and the suspension was stored at −80° C. […] At an arbitrary point of time, an arbitrary aliquot of the reaction mixture was diluted with formic acid to a final concentration of 70%, concentrated, and redissolved in a 6 M aqueous solution of urea.

Aβ peptide = molecular target: T2, Aβ peptide (Homo sapiens, UniProt P05067); experiment: Aβ selectivity of oxygenation, Test Example 9; assay type: biochemical; conditions: peptide 20 μM, catalyst 5 μM (25 mol %), 780 nm (7 mW), 37° C., 30 minutes
T2 construct: Aβ1-42 isopeptide (concentration: 250 μM in 0.1% aqueous solution of trifluoroacetic acid)
Experimental: (§1) Aβ1-42 isopeptide (concentration: 250 μM in 0.1% aqueous solution of trifluoroacetic acid), angiotensin IV (200 μM aqueous solution), Met-enkephalin (200 μM aqueous solution), and somatostatin (200 μM aqueous solution) were added to a phosphate buffer or phosphate buffer saline (pH 7.4) (with 0.1 M aqueous solution of sodium hydroxide, as necessary) so that a final peptide concentration of 20 μM or 40 μM (pH 7.4) was reached. Before being subjected to oxygenation reaction, the Aβ1-42 solution was incubated at 37° C. for 1 to 3 hours. The phosphate buffer containing 40 μM of Aβ was diluted with a Dulbecco's modified Eagle's medium (DMEM, Life Technologies) containing 0.1% horse serum and buffered with 25 mM of 4-(2-hydroxyethyl)-1-piperazineethanesulfonic acid (HEPES).
(§2) Solutions of the compounds with a final concentration of 2 μM were used for evaluation of oxygenation of Aβ1-42. Solutions of the compounds with a final concentration of 5 μM were used for evaluation of peptide selectivity. […] A control group without light irradiation was additionally prepared. Reaction was analyzed through monitor analysis with a MALDI-TOF MS. Degree of oxygenation was determined as a ratio: degree of oxygenation (%)=(total of MS intensities for n[O] adducts)/(MS intensity for native+total of MS intensities for n[O] adducts)×100. Aliquots of each reaction solution were desalted with a ZipTip U-C18 (Merck Millipore), as necessary, before mass spectrometry.

Met-enkephalin (ME) = molecular target: T3, Met-enkephalin (ME) (Homo sapiens, UniProt P01210); experiment: Aβ selectivity of oxygenation, Test Example 9; assay type: biochemical; conditions: peptide 20 μM, catalyst 5 μM, 780 nm (7 mW), 37° C., 30 minutes
T3 construct: angiotensin-IV (AT4), Met-enkephalin (ME), or somatostatin (Sst) (20 μM in each case)
Experimental: as §1, §2

angiotensin-IV (AT4) = molecular target: T4, angiotensin-IV (AT4) (Homo sapiens, UniProt P01019); experiment: Aβ selectivity of oxygenation, Test Example 9; assay type: biochemical; conditions: peptide 20 μM, catalyst 5 μM, 780 nm (7 mW), 37° C., 30 minutes
T4 construct: angiotensin-IV (AT4), Met-enkephalin (ME), or somatostatin (Sst) (20 μM in each case)
Experimental: as §1, §2

somatostatin (Sst) = molecular target: T5, somatostatin (Sst) (Homo sapiens, UniProt P61278); experiment: Aβ selectivity of oxygenation, Test Example 9; assay type: biochemical; conditions: peptide 20 μM, catalyst 5 μM, 780 nm (7 mW), 37° C., 30 minutes
T5 construct: angiotensin-IV (AT4), Met-enkephalin (ME), or somatostatin (Sst) (20 μM in each case)
Experimental: as §1, §2

Aβ1-42 = molecular target: T6, Aβ1-42 (Homo sapiens, UniProt P05067); experiment: Degree of oxygenation of pre-aggregated Aβ1-42 (MALDI-TOF MS), Test Example 10; assay type: biochemical; conditions: pre-aggregated Aβ1-42 20 μM, catalyst 2 μM, phosphate buffer pH 7.4, 780 nm (14 mW), 37° C., 30 minutes
T6 construct: phosphate buffer (pH 7.4)/cell culture solution (containing 0.1% horse serum) (1:3) containing Aβ1-42 (10 μM)
Experimental: as §1
Solutions of the compounds with a final concentration of 2 μM were used for evaluation of oxygenation of Aβ1-42. Solutions of the compounds with a final concentration of 5 μM were used for evaluation of peptide selectivity. Each mixture was subjected to light irradiation with an LED (wavelength: 500, 660, or 780 nm) at a distance of approximately 5 to 10 cm at room temperature. A control group without light irradiation was additionally prepared. Reaction was analyzed through monitor analysis with a MALDI-TOF MS. Degree of oxygenation was determined as a ratio: degree of oxygenation (%)=(total of MS intensities for n[O] adducts)/(MS intensity for native+total of MS intensities for n[O] adducts)×100. Aliquots of each reaction solution were desalted with a ZipTip U-C18 (Merck Millipore), as necessary, before mass spectrometry.
a: A phosphate buffer (pH 7.4) solution containing pre-aggregated Aβ1-42 (20 μM, incubated at 37° C. for 3 hours) and a catalyst (2 μM) was subjected to light irradiation (wavelength: 660 nm) at 37° C. for 30 minutes. Thereafter, the reaction mixture was analyzed by using a MALDI-TOF MS.
a: A phosphate buffer (pH 7.4) containing pre-aggregated Aβ1-42 (20 μM, obtained through incubation at 37° C. for 3 hours) and a catalyst (2 μM) were subjected to light irradiation at 780 nm (14 mW) at 37° C. for 30 minutes. The reaction mixture was analyzed by using a MALDI-TOF MS.

PC 12 cells = assay type: cell-based
Experimental: Rat pheochromocytoma PC 12 cells were suspended with DMEM containing 5% horse serum and 10% fetal bovine serum, seeded in a poly-D-lysine-coated 96-well plate at a concentration of 10,000 cells per well, and incubated in a 5% carbon dioxide atmosphere at 37° C. for 3 days. After the solvent was removed, the cells were washed with 150 μL of serum-free DMEM, and DMEM (75 μL) containing 0.1% horse serum was added thereto. Thereafter, the 96-well plate was incubated in a 5% carbon dioxide atmosphere at 37° C. for 1 day for use in oxygenation reaction. In oxygenation reaction, the compound E (100 μM dimethyl sulfoxide solution) was added to a phosphate buffer saline containing Aβ (aggregated in advance for 3 hours, 40 μM) and 25 μL of the above cell solution (final concentration of Aβ: 10 μM, final concentration of compound E: 1 μM). The mixture was irradiated with an LED (wavelength: 780 nm) at a distance of approximately 5 cm at 37° C. for 5 minutes. The cells were incubated in a 5% carbon dioxide atmosphere at 37° C. for 48 hours. The cell viability was measured by using the Cell Count Reagent SF (NACALAI TESQUE, INC., Kyoto, Japan) with WST-8 (2-(2-methoxy-4-nitrophenyl)-3-(4-nitrophenyl)-5-(2,4-disulfophenyl)-2H-tetrazolium).
b: LC50 (dark) indicates the toxicity of a compound itself, and LC50 (light) indicates the phototoxicity of a compound. The PC 12 cells were placed in dark or subjected to photocatalytic treatment under light irradiation (wavelength: 660 nm), and incubated at 37° C. for 5 minutes, and then in a 5% carbon dioxide atmosphere at 37° C. for 48 hours, for which the cell viability was analyzed (n=5, mean±SEM).
b: The PC 12 cells were treated together with a photocatalyst (1 μM) at 37° C. for 5 minutes in dark or under light irradiation (wavelength: 780 nm), and thereafter the cell viability was analyzed (n=3, mean±SEM).

## O=C(O)CCCCCN1CCCc2cc(/C=C/C3=[O+][B-](F)(C(F)(F)C(F)(F)F)OC(/C=C/c4cc5c6c(c4)CCCN6CCC5)=C3Br)ccc21 (stereo not drawn) [Compound E]
Arctic Aβ1-38; 30 minutes
  decrease of peak intensity (conversion) of Arctic Aβ1-38: 36%
Arctic Aβ1-38; 60 minutes
  decrease of peak intensity (conversion) of Arctic Aβ1-38: 53%
Arctic Aβ1-38; 150 minutes
  decrease of peak intensity (conversion) of Arctic Aβ1-38: 74%
Aβ peptide
  oxygenation of pre-aggregated Aβ peptide: 44%
Met-enkephalin (ME)
  oxygenation rate of Met-enkephalin: lower than 5%
angiotensin-IV (AT4)
  oxygenation rate of angiotensin-IV: lower than 5%
Somatostatin (Sst)
  oxygenation rate of somatostatin: lower than 5%
Aβ1-42
  Degree of oxygenation (%) of Aβ42 (λ = 780 nm): 58%
PC 12 cells
  CC50: > 10 µM
